US12252524B2, “GIP/GLP1 co-agonist compounds” (Eli Lilly and Company, priority 2018, dated 2025)
Numbered stars: 1 amine (or outer) side, 2 acyl side, 3 side chain; on linkers, the order of the positions; unused ones are H or OH. Square brackets hold non-standard residues; d marks the D form. Side chains are listed from the residue outwards. Peptide text beside a SMILES is read from it. * marks the point of attachment. C20 diacid = O=C(O)CCCCCCCCCCCCCCCCCCC(=O)*; γGlu = O=C(O)[C@H](CCC(=O)[*:2])N[*:1]; αMeF = C[C@](N)(Cc1ccccc1)C(=O)O; Aad = N[C@@H](CCCC(=O)O)C(=O)O; αMeL = CC(C)C[C@](C)(N)C(=O)O; AEEA = NCCOCCOCC(=O)O; Aib = CC(C)(N)C(=O)O

Columns and labels:
human Gcg receptor = target: T1, human Gcg receptor (Homo sapiens, UniProt P47871); assay: [125I]-Glucagon binding (SPA), human Gcg receptor; settings: read-out: hGLcgR Ki, nM (SEM, n)
T1 construct: expressed in transfected cells; crude membranes
Summary of the method: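 Crude membranes from cells expressing the receptor, prepared by hypotonic lysis in 50 mM Tris HCl pH 7.5 with protease inhibitors, homogenization and differential centrifugation, were used in a WGA-bead SPA. Binding buffer: 25 mM HEPES pH 7.4, 2.5 mM CaCl2, 1 mM MgCl2, bacitracin, Tween-20.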

human GIP receptor = target: T2, human GIP receptor (Homo sapiens, UniProt P48546); assay: [125I]-GIP binding (SPA), human GIP receptor; settings: read-out: hGIPR Ki, nM (SEM, n)
T2 construct: expressed in transfected cells; crude membranes
T2 sequence (P48546 22-466): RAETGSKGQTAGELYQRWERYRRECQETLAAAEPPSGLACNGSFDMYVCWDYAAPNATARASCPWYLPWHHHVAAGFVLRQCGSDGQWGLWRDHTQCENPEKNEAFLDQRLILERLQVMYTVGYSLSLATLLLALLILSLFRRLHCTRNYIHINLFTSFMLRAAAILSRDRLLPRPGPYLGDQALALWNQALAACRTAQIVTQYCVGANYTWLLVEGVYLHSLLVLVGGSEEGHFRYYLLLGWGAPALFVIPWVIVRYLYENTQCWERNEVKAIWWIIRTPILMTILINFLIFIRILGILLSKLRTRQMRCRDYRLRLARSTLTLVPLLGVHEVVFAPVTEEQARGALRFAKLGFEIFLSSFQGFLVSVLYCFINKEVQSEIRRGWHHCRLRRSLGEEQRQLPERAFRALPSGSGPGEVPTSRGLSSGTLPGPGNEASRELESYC

[1] = target: human GLP-1 receptor (GLP-1R) (Homo sapiens, UniProt P43220); assay: cAMP pharmacological functional assay in presence of casein, hGLP-1R; type: cell-based; settings: HEK293 cells expressing hGLP-1R, 0.1% Casein, geometric mean; read-out: hGLP1R cAMP Rel EC50 nM (SEM, n)
[2] = target: T3, gastric inhibitory peptide receptor (GIPR) (Homo sapiens, UniProt P48546); assay: cAMP pharmacological functional assay in presence of casein, hGIPR; type: cell-based; settings: HEK293 cells expressing hGIPR, 0.1% Casein, geometric mean; read-out: hGIPR cAMP Rel EC50 nM (SEM, n)
T3 sequence (P48546 22-466): T2 sequence (P48546 22-466)

human GLP-1R = human GLP-1R (Homo sapiens, UniProt P43220); assay: [125I]-GLP-1 binding (SPA), human GLP-1 receptor; parameters: expressed in transfected cells; crude membranes; settings: read-out: hGLP1R Ki, (nM) (SEM, n)
Summary of the method: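 Ki values are geometric means with SEM over independent replicates on different days, derived from IC50s fitted by four-parameter nonlinear regression. The assay used crude cell membranes in HEPES buffer, pH 7.4, containing CaCl2, MgCl2, bacitracin and TWEEN-20.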

T1 sequence (P47871 26-477): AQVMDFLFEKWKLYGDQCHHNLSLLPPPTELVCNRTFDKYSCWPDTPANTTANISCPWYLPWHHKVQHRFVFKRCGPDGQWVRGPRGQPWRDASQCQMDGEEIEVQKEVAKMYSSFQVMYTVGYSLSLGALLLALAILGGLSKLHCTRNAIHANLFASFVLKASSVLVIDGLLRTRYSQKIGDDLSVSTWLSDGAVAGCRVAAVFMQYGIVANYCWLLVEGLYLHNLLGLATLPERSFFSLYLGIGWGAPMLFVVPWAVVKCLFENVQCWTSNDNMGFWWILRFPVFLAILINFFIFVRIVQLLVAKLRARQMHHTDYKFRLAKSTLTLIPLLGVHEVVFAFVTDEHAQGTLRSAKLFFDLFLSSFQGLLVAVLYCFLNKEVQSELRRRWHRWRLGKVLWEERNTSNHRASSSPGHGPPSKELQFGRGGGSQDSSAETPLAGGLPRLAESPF
Chain of human GLP-1 receptor (GLP-1R) (P43220 24-463): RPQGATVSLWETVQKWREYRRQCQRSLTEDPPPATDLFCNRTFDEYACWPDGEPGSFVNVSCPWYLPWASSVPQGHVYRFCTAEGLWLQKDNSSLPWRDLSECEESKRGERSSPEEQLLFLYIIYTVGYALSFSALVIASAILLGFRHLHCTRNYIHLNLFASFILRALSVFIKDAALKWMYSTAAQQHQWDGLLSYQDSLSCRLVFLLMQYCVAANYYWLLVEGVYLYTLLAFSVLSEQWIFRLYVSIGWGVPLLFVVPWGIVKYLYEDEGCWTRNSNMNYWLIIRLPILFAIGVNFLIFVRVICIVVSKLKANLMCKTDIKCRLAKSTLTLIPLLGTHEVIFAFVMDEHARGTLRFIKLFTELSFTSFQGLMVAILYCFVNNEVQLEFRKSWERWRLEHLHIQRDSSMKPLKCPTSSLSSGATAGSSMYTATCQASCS
Chain of human GLP-1R (P43220 24-463): as above

| SMILES | Ki (human Gcg receptor) | Ki (human GIP receptor) | EC50 [1] | EC50 [2] | Ki (human GLP-1R) |
| --- | --- | --- | --- | --- | --- |
| CC[C@H](C)[C@H](NC(=O)[C@H](CC(C)C)NC(=O)[C@H](Cc1ccc(O)cc1)NC(=O)[C@H](CCC(=O)O)NC(=O)[C@@H](NC(=O)[C@H](Cc1ccccc1)NC(=O)[C@H](C)NC(=O)C(C)(C)NC(=O)[C@H](CCC(N)=O)NC(=O)[C@H](C)NC(=O)[C@H](CCCCNC(=O)COCCOCCNC(=O)COCCOCCNC(=O)CC[C@H](NC(=O)CCCCCCCCCCCCCCCCCCC(=O)O)C(=O)O)NC(=O)[C@H](CCCCN)NC(=O)[C@H](CC(=O)O)NC(=O)[C@H](CC(C)C)NC(=O)[C@H](CC(C)C)NC(=O)[C@@H](NC(=O)[C@H](CO)NC(=O)[C@H](Cc1ccc(O)cc1)NC(=O)[C@H](CC(=O)O)NC(=O)[C@H](CO)NC(=O)[C@@H](NC(=O)[C@H](Cc1ccccc1)NC(=O)[C@@H](NC(=O)CNC(=O)[C@H](CC(N)=O)NC(=O)C(C)(C)NC(=O)[C@@H](N)Cc1c[nH]cn1)[C@@H](C)O)[C@@H](C)O)[C@@H](C)CC)[C@@H](C)CC)C(=O)N[C@@H](CCC(=O)O)C(=O)NCC(=O)NCC(=O)N1CCC[C@H]1C(=O)N[C@@H](CO)C(=O)N[C@@H](CO)C(=O)NCC(=O)N[C@@H](C)C(=O)N1CCC[C@H]1C(=O)N1CCC[C@H]1C(=O)N1CCC[C@H]1C(=O)N[C@@H](CO)C(N)=O [Example 135] (H-H[Aib]NGTFTSDYSILLDKK([AEEA-AEEA-γGlu-C20 diacid])AQ[Aib]AFIEYLIEGGPSSGAPPPS-NH2) | 454 nM | 0.161 nM | 0.131 nM | 0.373 nM | 3.01 nM |
| CC[C@H](C)[C@H](NC(=O)[C@H](CC(C)C)NC(=O)[C@H](Cc1ccc(O)cc1)NC(=O)[C@H](CCC(=O)O)NC(=O)[C@@H](NC(=O)[C@H](Cc1ccccc1)NC(=O)[C@H](CCCC(=O)O)NC(=O)C(C)(C)NC(=O)[C@H](CCC(N)=O)NC(=O)[C@H](C)NC(=O)[C@H](CCCCNC(=O)COCCOCCNC(=O)COCCOCCNC(=O)CC[C@H](NC(=O)CCCCCCCCCCCCCCCCCCC(=O)O)C(=O)O)NC(=O)[C@H](CCCCN)NC(=O)[C@H](CC(=O)O)NC(=O)[C@H](CC(C)C)NC(=O)[C@](C)(CC(C)C)NC(=O)[C@@H](NC(=O)[C@H](CO)NC(=O)[C@H](Cc1ccc(O)cc1)NC(=O)[C@H](CC(=O)O)NC(=O)[C@H](CO)NC(=O)[C@@H](NC(=O)[C@](C)(Cc1ccccc1)NC(=O)[C@@H](NC(=O)CNC(=O)[C@H](CCC(=O)O)NC(=O)C(C)(C)NC(=O)[C@@H](N)Cc1ccc(O)cc1)[C@@H](C)O)[C@@H](C)O)[C@@H](C)CC)[C@@H](C)CC)C(=O)N[C@@H](CCC(=O)O)C(=O)NCC(=O)NCC(=O)N1CCC[C@H]1C(=O)N[C@@H](CO)C(=O)N[C@@H](CO)C(=O)NCC(=O)N[C@@H](C)C(=O)N1CCC[C@H]1C(=O)N1CCC[C@H]1C(=O)N1CCC[C@H]1C(=O)N[C@@H](CO)C(N)=O [Example 137] (H-Y[Aib]EGT[αMeF]TSDYSI[αMeL]LDKK([AEEA-AEEA-γGlu-C20 diacid])AQ[Aib][Aad]FIEYLIEGGPSSGAPPPS-NH2) | 98.1 nM | 0.0373 nM | 0.0397 nM | 0.0333 nM | 1.24 nM |
| CC[C@H](C)[C@H](NC(=O)[C@H](CC(C)C)NC(=O)[C@H](Cc1ccc(O)cc1)NC(=O)[C@H](CCC(=O)O)NC(=O)[C@@H](NC(=O)[C@H](Cc1ccccc1)NC(=O)[C@H](CO)NC(=O)C(C)(C)NC(=O)[C@H](CCC(N)=O)NC(=O)[C@H](C)NC(=O)[C@H](CCCCNC(=O)COCCOCCNC(=O)COCCOCCNC(=O)CC[C@H](NC(=O)CCCCCCCCCCCCCCCCCCC(=O)O)C(=O)O)NC(=O)[C@H](CCCCN)NC(=O)[C@H](CC(=O)O)NC(=O)[C@H](CC(C)C)NC(=O)[C@](C)(CC(C)C)NC(=O)[C@@H](NC(=O)[C@H](CO)NC(=O)[C@H](Cc1ccc(O)cc1)NC(=O)[C@H](CC(=O)O)NC(=O)[C@H](CO)NC(=O)[C@@H](NC(=O)[C@](C)(Cc1ccccc1)NC(=O)[C@@H](NC(=O)CNC(=O)[C@H](CCC(=O)O)NC(=O)C(C)(C)NC(=O)[C@@H](N)Cc1ccc(O)cc1)[C@@H](C)O)[C@@H](C)O)[C@@H](C)CC)[C@@H](C)CC)C(=O)N[C@@H](CCC(=O)O)C(=O)NCC(=O)NCC(=O)N1CCC[C@H]1C(=O)N[C@@H](CO)C(=O)N[C@@H](CO)C(=O)NCC(=O)N[C@@H](C)C(=O)N1CCC[C@H]1C(=O)N1CCC[C@H]1C(=O)N1CCC[C@H]1C(=O)N[C@@H](CO)C(N)=O [Example 138] (H-Y[Aib]EGT[αMeF]TSDYSI[αMeL]LDKK([AEEA-AEEA-γGlu-C20 diacid])AQ[Aib]SFIEYLIEGGPSSGAPPPS-NH2; N-terminus assumed) | 61.2 nM | 0.0295 nM | 0.0471 nM | 0.0581 nM | 0.926 nM |
| CC[C@H](C)[C@H](NC(=O)[C@H](CC(C)C)NC(=O)[C@H](Cc1ccc(O)cc1)NC(=O)[C@H](CCC(=O)O)NC(=O)[C@@H](NC(=O)[C@H](Cc1ccccc1)NC(=O)[C@H](CC(=O)O)NC(=O)C(C)(C)NC(=O)[C@H](CCC(N)=O)NC(=O)[C@H](C)NC(=O)[C@H](CCCCNC(=O)COCCOCCNC(=O)COCCOCCNC(=O)CC[C@H](NC(=O)CCCCCCCCCCCCCCCCCCC(=O)O)C(=O)O)NC(=O)[C@H](CCCCN)NC(=O)[C@H](CC(=O)O)NC(=O)[C@H](CC(C)C)NC(=O)[C@](C)(CC(C)C)NC(=O)[C@@H](NC(=O)[C@H](CO)NC(=O)[C@H](Cc1ccc(O)cc1)NC(=O)[C@H](CC(=O)O)NC(=O)[C@H](CO)NC(=O)[C@@H](NC(=O)[C@](C)(Cc1ccccc1)NC(=O)[C@@H](NC(=O)CNC(=O)[C@H](CCC(=O)O)NC(=O)C(C)(C)NC(=O)[C@@H](N)Cc1ccc(O)cc1)[C@@H](C)O)[C@@H](C)O)[C@@H](C)CC)[C@@H](C)CC)C(=O)N[C@@H](CCC(=O)O)C(=O)NCC(=O)NCC(=O)N1CCC[C@H]1C(=O)N[C@@H](CO)C(=O)N[C@@H](CO)C(=O)NCC(=O)N[C@@H](C)C(=O)N1CCC[C@H]1C(=O)N1CCC[C@H]1C(=O)N1CCC[C@H]1C(=O)N[C@@H](CO)C(N)=O [Example 140] (H-Y[Aib]EGT[αMeF]TSDYSI[αMeL]LDKK([AEEA-AEEA-γGlu-C20 diacid])AQ[Aib]DFIEYLIEGGPSSGAPPPS-NH2) | 175 nM | 0.0474 nM | 0.0424 nM | 0.0349 nM | 1.46 nM |
| CC[C@H](C)[C@H](NC(=O)[C@H](CC(C)C)NC(=O)[C@H](Cc1ccc(O)cc1)NC(=O)[C@H](CCC(=O)O)NC(=O)[C@@H](NC(=O)[C@H](Cc1ccccc1)NC(=O)[C@H](Cc1c[nH]cn1)NC(=O)C(C)(C)NC(=O)[C@H](CCC(N)=O)NC(=O)[C@H](C)NC(=O)[C@H](CCCCNC(=O)COCCOCCNC(=O)COCCOCCNC(=O)CC[C@H](NC(=O)CCCCCCCCCCCCCCCCCCC(=O)O)C(=O)O)NC(=O)[C@H](CCCCN)NC(=O)[C@H](CC(=O)O)NC(=O)[C@H](CC(C)C)NC(=O)[C@](C)(CC(C)C)NC(=O)[C@@H](NC(=O)[C@H](CO)NC(=O)[C@H](Cc1ccc(O)cc1)NC(=O)[C@H](CC(=O)O)NC(=O)[C@H](CO)NC(=O)[C@@H](NC(=O)[C@](C)(Cc1ccccc1)NC(=O)[C@@H](NC(=O)CNC(=O)[C@H](CCC(=O)O)NC(=O)C(C)(C)NC(=O)[C@@H](N)Cc1ccc(O)cc1)[C@@H](C)O)[C@@H](C)O)[C@@H](C)CC)[C@@H](C)CC)C(=O)N[C@@H](CCC(=O)O)C(=O)NCC(=O)NCC(=O)N1CCC[C@H]1C(=O)N[C@@H](CO)C(=O)N[C@@H](CO)C(=O)NCC(=O)N[C@@H](C)C(=O)N1CCC[C@H]1C(=O)N1CCC[C@H]1C(=O)N1CCC[C@H]1C(=O)N[C@@H](CO)C(N)=O [Example 142] (H-Y[Aib]EGT[αMeF]TSDYSI[αMeL]LDKK([AEEA-AEEA-γGlu-C20 diacid])AQ[Aib]HFIEYLIEGGPSSGAPPPS-NH2; N-terminus assumed) | 53.1 nM | 0.0275 nM | 0.0426 nM | 0.0489 nM | 1.06 nM |
